Values of other authors in patent US11285184B2, “Cannabidiol alkaline composition” (CHIROSYN DISCOVERY TECHNOLOGIES INC., priority 2018, dated 2022).

Conditions: CBD dissolved in sulfuric acid/acetic acid

Which results are given for C=C(C)[C@@H]1CCC(C)=C[C@H]1c1c(O)cc(CCCCC)cc1O [CBD, 2-[1R-3-methyl-6R-(1-methylethenyl)-2-cyclohexen-1-yl]-5-pentyl-1,3-benzenediol]?
Δ-8-THC formed from CBD: 2%; Δ-9-THC formed from CBD: 52%
